{"source": "patent US20230114207A1", "about": "“THE COMBINATION OF CYCLIN DEPENDENT KINASE 7 INHIBITOR AND IMMUNOTHERAPY FOR TREATMENT OF CANCER” (Dana-Farber Cancer Institute, Inc., priority 2019, published 2023)", "key": {"[1]": {"system": "RPP631 and DMS79 cells", "assay": "Cell cycle analysis (propidium iodide flow cytometry)", "assay_type": "cell-based, mouse, human", "procedure": "Cells were seeded in 6-well plates (0.5-1×10^6 cells/well) in media and treated with YKL-5-124 at indicated concentrations and time points. Cells were collected by centrifugation, washed in cold PBS and resuspended in 1 ml of 80% EtOH in PBS and stored overnight at −20° C. Cells were again collected by centrifugation and washed 3× with cold PBS. Hereafter cells were resuspended in PBS containing: 0.1% Triton X-100, 25 μg/ml Propidium Iodide (PI) and 0.2 mg/ml RNase A and incubated for 45 min at 37° C. After incubation, cells were placed at 4° C. until ready for analysis with flow cytometry. Cells were gated for PI staining and cell accumulation in G1, S and G2/M were calculated using ModFit LT software."}, "[2]": {"system": "Cyclin E, A, B, D in RPP631 and DMS79", "assay": "Cyclin expression (western blotting, qRT-PCR)", "assay_type": "cell-based, mouse, human", "settings": "24 hours", "procedure": "Cell pellets were collected and then subjected to total RNA extraction using RNeasy Plus Mini Kit (QIAGEN, Cat #74136) according to the manufacturer's instructions, or using TRIzol:Chloroform phase-separation by centrifugation followed by RNA precipitation using isopropanol. The extracted RNA was reversely transcribed into cDNA using the High-Capacity RNA-to-cDNA™ Kit (Thermo Fisher Scientific, Cat #4387406) according to the manufacturer's instructions. The obtained cDNA samples were diluted and used for RT-qPCR. PowerUp™ SYBR™ Green Master Mix (Thermo Fisher Scientific, Cat #A25742) or TaqMan Gene Expression Master Mix (Life Technologies, Cat #4369514). Gene specific primers with sequences listed in Table 3 were used for PCR amplification and detection on the StepOnePlus™ Real-Time PCR System (Thermo Fisher Scientific). RT-qPCR data were normalized to Actb (mouse cells) or GUSB (human cells) and presented as fold changes of gene expression in the test sample compared to the control.\nCells in culture were collected by centrifuging at 1,500 rpm and then washed with ice-cold PBS twice to completely remove residual medium. […] Protein concentrations in lysates were measured by Pierce™ BCA Protein Assay Kit (Thermo Fisher Scientific, Cat #23225) and followed by the addition of SDS loading buffer (6×) and heated at 95° C. for 5 min. […]"}, "[3]": {"system": "RPP631 cells", "assay": "Bulk RNA-sequencing and GSEA", "assay_type": "cell-based, mouse", "settings": "48 hr", "procedure": "Paired-end reads were aligned to mouse mm10 genome using STAR (v2.5.2b). Reads with good mapping quality (MAPQ>30) that aligned to genomic exons were counted using featureCounts (mm10 Ensembl 93) to generate a table with counts for each gene. Differential gene expression analysis was performed using the R package DESeq2 using the lfcShrink function. […] Gene set enrichment analysis (GSEA) was performed on a list of genes ranked from high to low DESeq2 estimated fold-change using the GSEAPreRanked function with enrichment statistic classic and 1000 permutations."}, "[4]": {"system": "tumor-infiltrating immune cells, RPP orthotopic model", "assay": "Immune profiling flow cytometry of tumor-bearing lung", "assay_type": "in vivo, mouse", "procedure": "Mice were humanely euthanized, and mouse lungs were perfused using sterile PBS through heart perfusion from the left ventricle after BAL fluid collection. The whole lung was cut and minced into small pieces followed by digestion in collagenase D (Sigma-Aldrich) and DNase I (Sigma-Aldrich) in Hank's Balanced Salt Solution (HBSS) at 37° C. for 30 minutes. After incubation, the digested tissue was subjected to a 70 μm cell strainer (Thermo Fisher Scientific) to obtain single-cell suspensions. Separated cells were treated with 1×red blood cell (RBC) lysis buffer (BioLegend). Live cells were determined by LIVE/DEAD fixable aqua dead cell stain kit (Molecular Probes). The cell pellets were resuspended in PBS with 2% FBS for FAGS analysis. Cells were stained with cell surface markers as indicated followed by fixation/permeabilization (eBioscience). Cells were imaged on BD LSRFortessa (BD Biosciences) and analyzed using FlowJo software (Tree Star)."}}}
{"smiles": "C=CC(=O)Nc1ccc(C(=O)Nc2n[nH]c3c2CN(C(=O)N[C@H](CN(C)C)c2ccccc2)C3(C)C)cc1", "note": "[YKL-5-124]", "values": [{"measurement": "cells in G1 phase", "setting": "[1]; 72 hours", "result": "significant accumulation"}, {"measurement": "cells in S phase", "setting": "[1]; 72 hours", "result": "corresponding loss"}, {"measurement": "percentage of cells in G2/M phase", "setting": "[1]; concentrations up to 500 nM", "result": "not significantly changed"}, {"measurement": "Cyclin E protein and mRNA (CCNE1) levels", "setting": "[2]", "result": "increase"}, {"measurement": "expression of Cyclins A (CCNA1), B (CCNB1), and D (CCND1)", "setting": "[2]", "result": "remained unchanged"}, {"measurement": "expression of pro-inflammatory cytokines and chemokines incl. TNFα pathway components and Cxcl10 (heatmaps)", "setting": "[3]", "result": "increased expression"}, {"measurement": "genes within GSEA terms associated with cell cycle, mitosis and E2F targets", "setting": "[3]", "result": "downregulated"}, {"measurement": "expression of SCLC SE-associated genes", "setting": "[3]; compared with THZ1", "result": "little effect"}, {"measurement": "'Interferon gamma response', 'TNFα signaling' and 'Inflammatory response' Hallmarks signatures (GSEA)", "setting": "[3]; three of the top five", "result": "most positively regulated"}, {"measurement": "CD44^highCD62L^+ effector CD4^+ T cells (CD44^highCD62L^low for the combination)", "setting": "[4]; 7-day treatment", "result": "substantial increase"}, {"measurement": "GzmB^+ CD8^+ T cells percentage", "setting": "[4]; 7-day treatment", "result": "considerable but equivalent increase"}, {"measurement": "ICOS^+ CD4^+ T cells", "setting": "[4]; 7-day treatment", "result": "significantly higher frequencies"}, {"measurement": "frequencies of total CD4^+ T cell infiltrates", "setting": "[4]; 7-day treatment", "result": "no significant change"}, {"measurement": "frequencies of total CD8^+ T cell infiltrates", "setting": "[4]; 7-day treatment", "result": "no significant change"}, {"measurement": "tumor-infiltrating CD4^+ T cells expressing Ki67", "setting": "[4]; 7-day treatment", "result": "modest increase"}, {"measurement": "percentages of tumor resident DCs (MHCII^+ CD11c^+ CD103^+)", "setting": "[4]; compared to control mice", "result": "significant increase"}]}
